Measured values as given in US20020198177A1, “Coenzyme Q and EPA” (priority 2001, published 2002).

Key:
[1] = format: in vivo, human
Source text: (§1) It was therefore decided to give the patient 10 g/d of 96% pure ethyl eicosapentaenoate containing less than 1% docosahexaenoic acid and no detectable linoleic acid.
No certain cause of the abnormal rhythm was identified. One possibility may have been the high intake of EPA. EPA at very high doses might theoretically give rise to oxygenated metabolites which could disturb cardiac rhythm. EPA at low doses seems to be strongly anti-arrhythmic but it is known that many anti-arrhythmic drugs can have pro-arrhythmic actions at certain doses.
Ubiquinone may have favourable effects on cardiac rhythm (R B Singh et al, Cardiovascular Drugs and Therapy 1998; 12: 347-353). 120 mg/day was given to the patient taking high dose EPA. […] The ubiquinone was then stopped after ten days.

cyclin D1 = conditions: in vitro and in animal models of cancer; cited from earlier work
mantle cell lymphoma = experiment: Case study: high-dose ethyl eicosapentaenoate in a patient with mantle cell lymphoma; format: in vivo, human
Source text: The following example reports that cancer developed in an individual who had been taking ethyl-EPA at a regular dose of 1 g/d. This individual had also at times in the past three years taken 2 g/d EPA but still cancer developed. […] Doses of 3 g/d to 30 g/d, and preferably of 5 g/d or 20 g/d will therefore be useful in the treatment of cancer. The EPA may be provided in any assimilable form. However, the triglyceride form and the ethyl-ester form are relatively non-irritant to the gastrointestinal tract and are the preferred forms for delivering these large amounts by mouth although other forms could be used for the intravenous route of administration. The EPA for oral administration should be in the purest form possible, at least 70% pure, preferably 80-90% pure, and very preferably 95% or more pure. Docosahexaenoic acid and linoleic acid should each be present at less than 5% and preferably less than 1%. The EPA may be formulated in capsules, liquids or emulsions such as may be required to make it appropriate for either oral or intravenous administration.
A person who had been taking 1 g/d of ethyl eicosapentaenoate as a supplement for general health reasons developed a form of non-Hodgkin's lymphoma called a mantle cell lymphoma. This is characterised by an over-production of a cell cycle controlling factor known as cyclin D1. Cyclin D1 appears to force the cells to divide continually. […] However, high doses are required to achieve the necessary levels in the cancer tissue.
as §1

cancerous cells = conditions: cited from earlier work
[2] = ubiquinone 120 mg/day added to high dose EPA, second day

SMILES: COC1=C(OC)C(=O)C(C/C=C(\C)CC/C=C(\C)CC/C=C(\C)CC/C=C(\C)CC/C=C(\C)CC/C=C(\C)CC/C=C(\C)CC/C=C(\C)CC/C=C(\C)CCC=C(C)C)=C(C)C1=O [ubiquinone]
- heart rate and rhythm [1, 2]: returned to normal
- heart rate at rest [1, 2]: 65 to 75 min⁻¹
- cardiac rate and rhythm abnormality on continued treatment ([1]; ubiquinone plus high dose of EPA over a period of four months): no return of the cardiac rate and rhythm abnormality
- heart rate and rhythm on reintroducing ubiquinone ([1]; ubiquinone reintroduced, high dose EPA continued): normal rate and rhythm came back
- heart rate and rhythm after stopping ubiquinone ([1]; ubiquinone stopped after ten days, four days after stopping, high dose EPA continued): variability of rate and rhythm returned

SMILES: CC/C=C\C/C=C\C/C=C\C/C=C\C/C=C\CCCC(=O)OCC [ethyl eicosapentaenoate]
- synthesis of cyclin D1 (cyclin D1): able to inhibit the synthesis of cyclin D1
- effect on the patient's palpable tumours (mantle cell lymphoma; 10 g/d of 96% pure ethyl eicosapentaenoate, sixth day of treatment, person): began to regress
- cancer size (mantle cell lymphoma; dose of EPA increased to 10 g/day, within a matter of days): reduced dramatically in size
- management of cancer at low dose (mantle cell lymphoma; doses of EPA of 2 g/day or less, cancer developed on 1 g/d, at times 2 g/d): likely to be ineffective
- growth of cancerous cells (cancerous cells): could inhibit the growth of cancerous cells
